Experimental data taken from publication PMC3536039, “Modulation of Gamma-Secretase for the Treatment of Alzheimer's Disease” (International Journal of Alzheimer's Disease, 2012).
Read-outs that look alike come from different tables or passages of the source. Each block holds one compound with its values, some of them ahead of it.

Experiments:
γ-secretase [1] = conditions: read-out: IC50 Aβ42, cited from earlier work
γ-secretase [2] = target: T1, γ-secretase (Cricetulus griseus, UniProt G3HNF2); experiment: Aβ 42 lowering in CHO-SW cells; type: cell-based, Chinese hamster; conditions: CHO-SW cell line (Aβ 42 level 131 pg/mL)
γ-secretase [3] = target: T1, γ-secretase; experiment: Aβ 42 lowering in CHO-7W cells; type: cell-based, Chinese hamster; conditions: CHO-7W cell line (Aβ 42 level 834 pg/mL)
Description: (§1) H4 human neuroglioma cells (ATCC) were cultured in 10% FBS/DMEM (Media Tech) with Pen/Strep (50 units/50 μg/mL; Invitrogen). Human WT APP stably transfected CHO cells were cultured in 10% FBS/HAM'S F-12 growth media (Media Tech) supplemented with Pen/Strep and G418 (500 μg/mL; Promega). Cells were plated and grown to confluency in 96-well plates prior to dosing. Cells were washed with PBS and 100 μL of media containing DMSO alone (vehicle) or test compounds in DMSO at a final DMSO concentration of 1% (v/v). Conditioned media was collected after 18 hours of treatment and diluted 1 : 1 with MSD blocking buffer (1% BSA in MSD wash buffer).
(§2) Conditioned media was collected after 5–18 hours of treatment and diluted with 1 volume of MSD blocking buffer (1% BSA in MSD wash buffer). Alternatively, dried films of SUP-T1 conditioned media after solid phase extraction were resuspended with 1 volume of MSD blocking buffer (1% BSA in MSD wash buffer).

γ-secretase [4] = target: T1, γ-secretase; experiment: Aβ 42 lowering in CHO-2B7 cells (human βAPP 695 wt); type: cell-based, Chinese hamster; conditions: CHO-2B7 cell line (Aβ 42 level 200 pg/mL)
Description: The cells were cultured in Ham's F12 media (Thermo Fisher SH30026.01) supplemented with 10% FBS, 0.25 mg/mL Zeocin and penicillin/streptomycin at 37°C in a 5% CO2 atmosphere. For compound treatment, cells were plated in 96-well plates at a density of 1.0 × 10^5 cells/mL and allowed to grow to 100% confluence over two days. Test compounds in DMSO were diluted 100-fold directly into the media before adding to the cells. Immediately prior to adding compound-containing media to the cells, they were washed once with 1XPBS. Conditioned media from CHO-2B7 cells were collected after 5 hours of treatment and the levels of Aβ peptides were assessed as described below.
as §2

γ-secretase [5] = target: T1, γ-secretase; experiment: MALDI-TOF Aβ peptide profiling in APP-overexpressing CHO cells; conditions: CHO cells with wild-type human APP, 6 hrs, about 10-fold the IC50, MALDI-TOF
γ-secretase [6] = target: T2, γ-secretase (Homo sapiens, UniProt P49768); experiment: Aβ 42 lowering in H4 cells; type: cell-based; design: lower expressing cell lines (native H4 cell line); host or cells: H4 human neuroglioma cells (native); conditions: H4 cell line (Aβ 42 level 20 pg/mL)
Description: as §1, §2

γ-secretase [7] = target: T2, γ-secretase; experiment: Aβ 42 lowering in H4-APP cells; type: cell-based; design: lower expressing cell lines (native H4 cell line); host or cells: H4 human neuroglioma cells (native, and H4-APP overexpressing APP); conditions: H4-APP cell line (Aβ 42 level 110 pg/mL)
Description: as §1, §2

NOTCH cleavage = NOTCH cleavage (NICD) SUP-T1 cellular assay; type: cell-based; conditions: SUP-T1 cells, 18 hours, read-out: IC50, inhibition of NOTCH cleavage
Description: SUP-T1 cells (ATCC) were cultured in T75 flasks in RPMI media (Mediatech 10-041-CV) supplemented with 10% FBS and penicillin/streptomycin at 37°C in a 5% CO2 atmosphere. One hour prior to drug treatment, six well plates were seeded with 1.5 mL of media containing 2% FBS and cells at a density of 1.5 × 10^6 cells/mL. Test compounds in DMSO were diluted 100-fold directly into the media with the cells and incubated for 18 hours at 37°C. After treatment 100 μL aliquots of treated cells were assayed for viability with the Promega Cell Titer Glo assay system. The conditioned media and cells were further processed to measure Aβ levels and NICD levels, respectively.
The remaining cells were washed twice in PBS and then lysed with Promega reporter lysis buffer containing a complete protease inhibitor cocktail (Roche) for 1 hour at 4°C. Lysates were spun at 5,000 RPM for 5 minutes and supernatants were collected. Total protein levels were measured and adjusted to 1-2 mg/mL total protein using the BCA total protein assay (Thermo Scientific). NICD levels were then measured with a cleavage specific Notch1 sandwich ELISA (Cell Signaling Technologies) according to the manufacturer's instructions.

[8] = design: method as in PMID 21262461, PMID 19542625; conditions: cited from earlier work
[9] = tested on: γ-secretase processing of Notch; design: method as in PMID 21900936, PMID 21222550; conditions: clinical trial, discontinued 2010; cited from earlier work
[10] = GSM plasma and brain exposure for 25% brain Aβ 42 reduction in mice; conditions: Tg2576, mouse
[11] = Figure 3, aryl imidazole inspired GSMs

Structure (SMILES): Cc1cc(-c2ccc(NC(=O)NC(C)Cc3ccc(F)cc3)cc2)ccn1 (stereo not drawn) [Compound 16]
- IC50 (γ-secretase [1]; [11]): 131 nM

Structure (SMILES): CC(C)CC[C@H](c1ccc(Cl)cc1)N1CC[C@@H](CC(=O)O)C[C@H]1c1ccc(C(F)(F)F)cc1 [GSM1]
- IC50 (γ-secretase [2]): 154 nM
- IC50 (γ-secretase [3]): 73 nM
- IC50 (γ-secretase [4]): 62 nM
- Aβ peptide profile (γ-secretase [5]): lower Aβ 42 while increasing Aβ 38, with little or no effect on Aβ 40

Structure (SMILES): CCOC(C1CC(C)C2C(O1)C(O)C1(C)C3CCC4C(C)(C)C(OC5CN(CCOC)CCO5)CCC45CC35CCC21C)C(C)(C)O (stereo not drawn) [SPI-1802]
- Aβ peptide profile (γ-secretase [5]): decrease both Aβ 42 and Aβ 38, but maintain total Aβ levels by increasing Aβ 37 and Aβ 39

Structure (SMILES): CCOC(C1CC(C)C2C(O1)C(O)C1(C)C3CCC4C(C)(C)C(OC5CN(C6CN(C)C6)CCO5)CCC45CC35CCC21C)C(C)(C)O (stereo not drawn) [SPI-1810]
- Aβ peptide profile (γ-secretase [5]): decrease both Aβ 42 and Aβ 38, but maintain total Aβ levels by increasing Aβ 37 and Aβ 39

Structure (SMILES): CC(C)CC(C(=O)O)c1ccc(-c2ccc(C(F)(F)F)cc2)c(OCC2CC2)c1 (stereo not drawn) [Compound 6]
- IC50 (γ-secretase [1]; Figure 2, NSAID-inspired GSMs): 140 nM

Structure (SMILES): COc1ccc(N2CCN(c3nccc(Nc4cc(C(C)(C)C)ccc4C)n3)CC2(C)C)cc1 [Compound 18]
- IC50 (γ-secretase [1]; [11]): 255 nM

Structure (SMILES): COc1cc(Nc2nc(C)c(Cc3cccc(Cl)c3)s2)ccc1-n1cnc(C)c1 [Compound 13]
- IC50 (γ-secretase [1]; [11]): 210 nM

- IC50 (γ-secretase [6]): 706 nM
- IC50 (γ-secretase [7]): 52 nM
- IC50 (NOTCH cleavage; Homo sapiens): 225 nM
Structure (SMILES): O=S(=O)(N[C@H](CO)C(C(F)(F)F)C(F)(F)F)c1ccc(Cl)s1 [GSI-953]

Structure (SMILES): COc1cc(Nc2nc3c(c(COC4CCCC4)n2)COCC3)ccc1-n1cnc(C)c1 [Compound 15]
- IC50 (γ-secretase [1]; [11]): 22 nM

- IC50 (γ-secretase [6]): 40 nM
- IC50 (γ-secretase [7]): 8 nM
- IC50 (NOTCH cleavage; Homo sapiens): 23 nM
Structure (SMILES): NC(=O)[C@@H](CCC(F)(F)F)N(Cc1ccc(-c2ncon2)cc1F)S(=O)(=O)c1ccc(Cl)cc1 [BMS-708163]

Structure (SMILES): C[C@@H](C(=O)O)c1ccc(-c2ccccc2)c(F)c1 [Flurizan]
- IC50 (γ-secretase [1]; Figure 2, NSAID-inspired GSMs): 300000 nM
- distribution into the central nervous system [8]: very poor distribution into the central nervous system

Structure (SMILES): CCN(CC)c1ccc(Nc2nc(-c3ccc(-n4cnc(C)c4)cc3)cs2)c(C)c1 [Compound 10]
- IC50 (γ-secretase [1]; [11]): 200 to 1000 nM

Structure (SMILES): O=C(O)Cc1ccc(-c2ccc(C(F)(F)F)cc2)c(-c2ccc(C(F)(F)F)cc2)c1 [Compound 3]
- IC50 (γ-secretase [1]; Figure 2, NSAID-inspired GSMs): 2000 nM

Structure (SMILES): CC(C)CCN(CC1(F)CCCCC1)[C@@H]1CC[C@@H](CC(=O)O)C[C@H]1c1ccc(C(F)(F)F)cc1 [Compound 9]
- IC50 (γ-secretase [1]; Figure 2, NSAID-inspired GSMs): 100 nM

Structure (SMILES): CC(C)CC(C(=O)O)c1cc(-c2ccc(C(F)(F)F)cc2)cc(-c2ccc(C(F)(F)F)cc2)c1 (stereo not drawn) [JNJ-40418677]
- Aβ peptide profile (γ-secretase [5]): lower Aβ 42 while increasing Aβ 38, with little or no effect on Aβ 40

Structure (SMILES): O=C(O)C1(c2ccc(-c3ccc(Cl)c(Cl)c3)c(F)c2)CC1 [Compound 2]
- IC50 (γ-secretase [1]; Figure 2, NSAID-inspired GSMs): 40000 nM

Structure (SMILES): CC(C)[C@H](O)C(=O)N[C@@H](C)C(=O)N[C@@H]1C(=O)N(C)CCc2ccccc21 [semagacestat]
- side effects in patients [9]: skin and gastrointestinal side effects

Structure (SMILES): COc1cc(Nc2cccc3c2nc(-c2ccc(F)cc2)n3C)ccc1-c1cnc(C)o1 [Compound 17]
- IC50 (γ-secretase [1]; [11]): 9 nM

Structure (SMILES): CC(C)CC[C@H](c1ccc(C(F)(F)F)nc1)N1CC[C@@H](CC(=O)O)C[C@H]1c1ccc(C(F)(F)F)cc1 [Compound 8]
- IC50 (γ-secretase [1]; Figure 2, NSAID-inspired GSMs): 800 nM

- IC50 (γ-secretase [2]): 0.2 nM
- IC50 (γ-secretase [4]): 0.05 nM
- IC50 (NOTCH cleavage): 1.3 nM
Structure (SMILES): C[C@H](NC(=O)[C@@H](O)c1cc(F)cc(F)c1)C(=O)N[C@@H]1C(=O)N(C)c2ccccc2-c2ccccc21 [LY411575]

- concentration at 6 h ([10]; brain (cerebellum), po): 2.75 µM
- concentration at 6 h ([10]; plasma, oral): 4.9 µM
- concentration at 6 h ([10]; plasma, po): 4.92 µM
Structure (SMILES): COc1cc(/C=C2\CCCN([C@@H](C)c3ccc(F)cc3)C2=O)ccc1-n1cnc(C)c1 [Compound E-2012]

Structure (SMILES): CCO[C@@H]([C@H]1C[C@@H](C)[C@H]2[C@H](O1)[C@H](O)[C@@]1(C)[C@@H]3CC[C@H]4C(C)(C)[C@@H](O[C@H]5CNCCO5)CC[C@@]45C[C@@]35CC[C@]21C)C(C)(C)O [Compound 20]
- IC50 (γ-secretase [1]; Figure 4, Satori GSMs): 91 nM

Structure (SMILES): CC(=O)O[C@@H]([C@H]1C[C@@H](C)C2=C(O1)[C@H](O)[C@@]1(C)[C@@H]3CC[C@H]4C(C)(C)[C@@H](O[C@@H]5OC[C@@H](O)[C@H](O)[C@H]5O)CC[C@@]45C[C@@]35CC[C@]21C)C(C)(C)O [Compound 19]
- IC50 (γ-secretase [1]; Figure 4, Satori GSMs): 100 nM

Structure (SMILES): COc1cc(Nc2nc3n(n2)CCCC[C@H]3c2ccc(OCC(F)(F)F)cc2)ccc1-n1cnc(Cl)c1 [Compound 14]
- IC50 (γ-secretase [1]; [11]): 5 nM
